Reference: paper PMC10534672, “A Nucleus-Targeting WT1 Antagonistic Peptide Encapsulated in Polymeric Nanomicelles Combats Refractory Chronic Myeloid Leukemia” (Pharmaceutics, 2023)
Ends that are not written are not given here.

What was measured:
myeloid leukemia = conditions: cited from earlier work
From the text: In CML, the influence of WT1 stems from its robust transcriptional control of genes associated with cell growth, metabolism, differentiation, and apoptosis. Interventions targeting WT1 can induce cell cycle arrest and apoptosis. […] Similarly, WT1-specific RNA interference led to an increase in G0/G1-phase cells and a decrease in S-phase cells. In this study, the WIP2W peptide halted the cell cycle in ...

[1] = test system: WT1+ BP-CML xenograft (K562) mice; assay: Splenic infiltration (Ki67 staining of spleen); assay type: in vivo, BALB/c nude mice; conditions: after 14 days daily treatment, n = 3
[2] = test system: WT1+ BP-CML xenograft (K562) mice; conditions: single subcutaneous injection, 30 mg/kg WIP2W (FITC-labelled), 4 h, IVIS of heart, liver, spleen, lung, kidney
Protocol: In this study, a WT1^+ BP-CML xenograft mouse model was developed. K562 cells (1 × 10^7/animal) were injected subcutaneously into the flanks of 5-week-old female BALB/c nude mice to generate primary BP-CML tumors. Once the tumors became noticeable, the mice were euthanized, and tumor cells were harvested. These cells were then reintroduced subcutaneously into a new set of hosts (1 × 10^7/animal) for further therapeutic investigations. […] Four hours post-administration, the mice were euthanized. Their tumors and primary organs were then extracted and assessed for fluorescence using IVIS (in vivo imaging system) equipment from PerkinElmer, USA.

[3] = Encapsulation efficiency of PEG-PE micelles by ultrafiltration; assay type: physicochemical; conditions: n = 3
Protocol: The ability of PEG-PE micelles to encapsulate WIP2W was assessed using an ultrafiltration method. Solutions of FITC-WIP2W-loaded micelles (with PEG-PE concentrations of 5, 10, 30, 50, 100, and 200 μM, and FITC-WIP2W at 10 μM) were placed into an ultra-centrifugal filter (MWCO 100,000, Millipore, Burlington, MA, USA). They were then centrifuged at 12,000× g for 30 min. The fluorescence intensity of the filtrate was subsequently measured spectrophotometrically. A concentration-to-fluorescence intensity relationship was then derived to determine the amount of unencapsulated FITC-WIP2W in the filtrate. From this, the encapsulation efficiency (EE%) of PEG-PE micelles for WIP2W can be calculated, as shown below. EE% = incorporated WIP2W/initial WIP2W added × 100%(1)

[4] = Biological safety in vivo (body weight, H&E of major organs)
K562 cells [5] = assay: Intracellular localization by confocal laser scanning microscopy; assay type: cell-based, human; conditions: FITC-WIP2W 10 μM, K562, 37 °C, 3.5 h, Hoechst33342
Protocol: The precise localization of WIP2W was identified using the same microscope. K562 cells, after being exposed to FITC-WIP2W (10 μM) at 37 °C for 3.5 h, were gathered and stained with Hoechst33342. They were then moved to confocal dishes, where fluorescence data were captured.

WT1 protein [6] = molecular target: T1, WT1 protein (Homo sapiens, UniProt P19544); assay: WT1 immunohistochemistry of excised tumors; assay type: in vivo, BALB/c nude mice; parameters: The excised tumors underwent immunohistochemical analysis using an anti-WT1 antibody; from tissue; host or cells: excised K562 xenograft tumours from BALB/c nude mice; conditions: anti-WT1 IHC, after 14 days daily s.c. treatment, WIP2W 30 mg/kg
T1 sequence (P19544 whole entry): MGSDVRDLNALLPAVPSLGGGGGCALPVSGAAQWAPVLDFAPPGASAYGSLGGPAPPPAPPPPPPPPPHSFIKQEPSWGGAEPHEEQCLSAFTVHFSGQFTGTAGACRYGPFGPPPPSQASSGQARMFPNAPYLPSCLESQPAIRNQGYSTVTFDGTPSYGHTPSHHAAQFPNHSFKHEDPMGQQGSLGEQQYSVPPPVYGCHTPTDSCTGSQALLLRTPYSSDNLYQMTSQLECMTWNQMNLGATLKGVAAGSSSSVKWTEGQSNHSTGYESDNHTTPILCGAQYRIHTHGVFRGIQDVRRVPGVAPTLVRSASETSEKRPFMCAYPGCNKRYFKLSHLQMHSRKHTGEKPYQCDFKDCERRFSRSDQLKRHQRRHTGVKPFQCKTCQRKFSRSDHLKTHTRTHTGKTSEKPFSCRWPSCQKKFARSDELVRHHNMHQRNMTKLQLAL
From the text: […]. […] […].

K562 cells [7] = test system: K562 cells
Protocol: (§1) K562 (1.5 × 10^4/well) and L02 (8 × 10^3/well) cells were seeded in 96-well plates and incubated with gradient concentrations of peptides or micelles in complete mediums. After 24 or 48 h of incubation, each well was spiked with CCK-8 agent (10 μL) for another 2 h. Absorption was detected by a spectrophotometer at 450 nm (Molecular Devices, San Jose, CA, USA), and IC50 values were calculated by curve fitting.

[8] = test system: WT1+ BP-CML xenograft (K562) mice; assay: In vivo antitumor efficiency; parameters: species or system BALB/c nude mice; conditions: tumors excised after 14 days daily s.c. treatment, WIP2W 30 mg/kg
Protocol: These tumor-bearing mice were then randomly assigned to one of four groups (n = 5 per group). […] The subcutaneous tumor volume (mm^3) and body weight (g) were recorded three times per week, and the tumor volume can be computed according to the following equation:Tumor volume (mm^3) = L × W × W/2(2) where “L” and “W” denote the maximum and minimum dimensions, respectively. On day 19, the mice were slaughtered, and the retrieved major organs and tumors were stained with hematoxylin and eosin (H&E), WT1, and Ki67, respectively.

K562 cells [9] = assay: Cellular uptake by flow cytometry; assay type: cell-based, human; conditions: FITC-WIP2W 0.05, 0.5 and 5 μM, K562, 37 °C, 2 h, n = 3
Protocol: The percentage of positive cells and their mean fluorescence intensity were then analyzed using a flow cytometer, with each condition tested in triplicate (n = 3).

K562 cells [10] = assay: Cell cycle analysis (PI, flow cytometry); assay type: cell-based, human; conditions: K562, 10 μM, 24 h
Protocol: K562 cells were incubated in the absence and presence of WIP2W (10 μM) for 24 h. Subsequently, these cells were collected and fixed with 75% cold ethanol overnight, followed by treatment with propidium iodide (PI) and RNase A. Then, the cell fluorescence was examined using flow cytometry, and the cell cycle profiles were analyzed using FlowJo 10.

L02 cells = assay: Cytotoxicity assay (CCK-8); conditions: L02, up to 40 μM, 24 h
Protocol: as §1

WT1 protein [11] = molecular target: T1, WT1 protein; assay: Pull-down assay with biotin-WIP2W on streptavidin magnetic beads, anti-WT1 immunoblot; assay type: binding; parameters: incubated with protein lysates, including the nuclear and cytoplasmic proteins from K562 cells; endogenous in cells; host or cells: K562 cells; conditions: nuclear and cytoplasmic protein lysates of K562 cells, 2 h at 25 °C, anti-WT1 Western blot
Protocol: Proteins from different localizations were harnessed for peptide–protein interaction studies. […] The bound WIP2W beads were magnetically separated, discarding the unattached WIP2W molecules in the leftover solution. The combined protein extracts from the whole cell, nucleus, and cytoplasm were then exposed to the WIP2W beads for another 2 h at 25 °C. Finally, the bead eluates were probed using an anti-WT1 antibody.

Row | Molecule | Effect on cell cycle progression (myeloid leukemia) | Ki67 staining of spleen (splenic infiltration of CML cells) [1] | Distribution in major organs [2] | Encapsulation efficiency (EE%) ([3]; molar ratio PEG-PE:WIP2W 3:1, FITC-WIP2W 10 μM in PBS, ultrafiltration MWCO 100,000, fluorescence) | Encapsulation efficiency (EE%) ([3]; molar ratio PEG-PE:WIP2W surpassed 10, FITC-WIP2W 10 μM in PBS, ultrafiltration, fluorescence) | Body weight ([4]; 14 days daily treatment, compared to control and imatinib groups) | H&E staining of major organs (systemic toxicity) ([4]; after 14 days daily treatment, imatinib 50 mg/kg i.p., WIP2W 30 mg/kg s.c.) | Intracellular localization (K562 cells [5]) | WT1 protein levels in tumor tissues relative to controls (WT1 protein [6]) | Cell viability (K562 cells [7]; K562, 20 μM, 24 h, CCK-8, PBS control = 100%) [%] | IC50 (K562 cells [7]; read-out: IC50 (concentration that inhibited 50% K562 cell proliferation), K562, 24 h, CCK-8, n = 6) [µM] | H&E staining of tumor tissues [8] | Cellular uptake (K562 cells [9]) | G2/M phase compartment of cell cycle distribution (K562 cells [10]; n = 3 (control 22.4%)) [%] | G0/G1 phase compartment of cell cycle distribution (K562 cells [10]; n = 3 (control 24.1%)) [%] | Cytotoxicity in normal hepatic cell line L02 (L02 cells) | Binding of WIP2W to WT1 protein (pull-down) (WT1 protein [11])
1 | COc1cc(/C=C/C(=O)CC(=O)/C=C/c2ccc(O)c(OC)c2)ccc1O [curcumin] | induce cell death and G2/M phase arrest |  |  |  |  |  |  |  |  |  |  |  |  |  |  |  | 
2 | Cc1ccc(NC(=O)c2ccc(CN3CCN(C)CC3)cc2)cc1Nc1nccc(-c2cccnc2)n1 [imatinib, reference compound] |  | pronounced fluorescence in the spleen |  |  |  |  |  |  |  |  |  |  |  |  |  |  | 
3 | WWGGDQRRSWGRRRPDRRYGRKKRRQRRR [WIP2W] |  | negligible signs of metastatic CML cells in the spleen | predominantly distributed in the liver and kidneys | approximately 72% | exceeded 95% | no significant weight loss | minimal systemic toxicity | majority of the green fluorescence was pinpointed in K562 cells’ nuclei | significantly diminished | < 10 | 9.7 | pronounced cell death | concentration dependency | 14.1 | 32.4 | no apparent cytotoxicity | specifically bind to the WT1 protein in both the nucleus and cytoplasm
